SMILES strings stand for the structures.

The subject of this test is cytoplasmic mutant R636S RBM20 condensates in H9C2 cells. In words: Screening assay for compounds that modulate cytoplasmic mutant R636S RBM20 condensates (fluorescence imaging). In kind it is cell-based, rat. The conditions noted are these: H9C2 cells transiently transfected with R636S RBM20-Dendra2; 20 μM test compound; incubated 24 hours; versus DMSO. The protocol:
H9C2 cells were engineered using transient transfection to express a mutant R636S RBM20 polypeptide linked to a Dendra2 label. Following transfection, cells were incubated to allow for RBM20 polypeptide expression for about 16 hours. H9C2 cells were seeded into 384-well plates, and admixed with a control (DMSO) or 20 μM test compound, and then incubated for 24 hours prior to fixation, staining (e.g., with DAPI), and capturing of fluorescent images. H9C2 cells not transfected with mutant R636S RBM20 polypeptide served as controls. Three replicates were run for each compound. Fluorescent images of cells, and/or portions of cells, were captured using a DeltaVision wide-field deconvoluted system.
Non-transfected H9C2 cells served as control. […] Their down-regulation levels are indicated as Z score under each panel.
Consider `O=C1Nc2cc(Br)ccc2/C1=C1/Nc2ccccc2/C1=N\O` [BIO], for which the “effect on cytoplasmic mutant R636S RBM20 condensates” value (“effect” below) is “able to reduce cytoplasmic mutant R636S RBM20 condensates”.
In the case of `CCN(CC)CCCC(C)Nc1c2ccc(Cl)cc2nc2ccc(OC)cc12.Cl.Cl` (stereo not drawn) [Quinacrine 2HCl], the “effect” value is reported as “increased cytoplasmic mutant R636S RBM20 condensates”.
Regarding `CC(C)[C@]12O[C@H]1[C@@H]1O[C@]13[C@]1(O[C@H]1C[C@H]1C4=C(CC[C@@]13C)C(=O)OC4)[C@@H]2O` [Triptolide], the “effect” value is on record as “able to reduce cytoplasmic mutant R636S RBM20 condensates”.
For `Cn1ncc(Cl)c1-c1cc(C(=O)N[C@H](CN)Cc2ccc(F)c(F)c2)oc1Cl` [Uprosertib], the “effect” value is on record as “able to reduce cytoplasmic mutant R636S RBM20 condensates”.
To `CN1CCN(Cc2ccc(NC(=O)Cc3ccc(Oc4cc(NC(=O)C5CC5)ncn4)cc3)cc2C(F)(F)F)CC1` [WS6] belongs “able to reduce cytoplasmic mutant R636S RBM20 condensates”; to `COc1ccc(C[C@H]2NC[C@H](O)[C@H]2OC(C)=O)cc1` [anisomycin], “able to reduce cytoplasmic mutant R636S RBM20 condensates”.

The record behind these values is patent US20220365070A1, “COMPOSITIONS, SYSTEMS, AND METHODS FOR IDENTIFYING A COMPOUND THAT MODULATES ONE OR MORE CHARACTERISTICS ASSOCIATED WITH A RBM20 CONDENSATE AND/OR A RBM20 POLYPEPTIDE” (Dewpoint Therapeutics, Inc., priority 2019, published 2022).
